pIC50: −log10 of the molar value.

The assay addresses USP1, construct USP1 (I-785, GG670, 671AA)/UAF1 (I-677)-Flag (Homo sapiens (Human), UniProt O94782, G670A/G671A). The assay can be described thus: Ubiquitin-Rhodamine 110 assay for USP1 activity, follow-up IC50 format. It is filed as biochemical.

Chain of USP1, construct USP1 (I-785, GG670, 671AA)/UAF1 (I-677)-Flag (O94782 whole entry G670A/G671A): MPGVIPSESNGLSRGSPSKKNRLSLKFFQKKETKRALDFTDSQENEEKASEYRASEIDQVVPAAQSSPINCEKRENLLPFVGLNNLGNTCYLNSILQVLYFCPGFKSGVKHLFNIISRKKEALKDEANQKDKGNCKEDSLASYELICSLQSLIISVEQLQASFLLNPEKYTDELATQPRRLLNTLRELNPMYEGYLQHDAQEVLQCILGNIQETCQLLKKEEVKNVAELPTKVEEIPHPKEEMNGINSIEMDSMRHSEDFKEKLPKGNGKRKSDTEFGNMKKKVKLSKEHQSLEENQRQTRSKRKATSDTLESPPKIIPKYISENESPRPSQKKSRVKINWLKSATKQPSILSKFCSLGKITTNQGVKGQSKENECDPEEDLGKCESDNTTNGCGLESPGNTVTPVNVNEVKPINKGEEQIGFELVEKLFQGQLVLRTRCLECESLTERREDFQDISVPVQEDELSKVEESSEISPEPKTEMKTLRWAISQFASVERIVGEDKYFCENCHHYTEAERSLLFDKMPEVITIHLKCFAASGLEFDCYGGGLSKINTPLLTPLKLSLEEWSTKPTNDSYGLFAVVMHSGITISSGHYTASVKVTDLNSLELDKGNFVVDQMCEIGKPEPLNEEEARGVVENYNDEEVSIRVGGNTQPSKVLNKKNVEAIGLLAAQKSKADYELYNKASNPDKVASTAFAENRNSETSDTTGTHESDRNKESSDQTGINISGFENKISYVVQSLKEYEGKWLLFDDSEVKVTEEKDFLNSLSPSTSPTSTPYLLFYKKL
Chain of USP1, construct USP1 (I-785, GG670, 671AA)/UAF1 (I-677)-Flag (Q8TAF3 whole entry partner): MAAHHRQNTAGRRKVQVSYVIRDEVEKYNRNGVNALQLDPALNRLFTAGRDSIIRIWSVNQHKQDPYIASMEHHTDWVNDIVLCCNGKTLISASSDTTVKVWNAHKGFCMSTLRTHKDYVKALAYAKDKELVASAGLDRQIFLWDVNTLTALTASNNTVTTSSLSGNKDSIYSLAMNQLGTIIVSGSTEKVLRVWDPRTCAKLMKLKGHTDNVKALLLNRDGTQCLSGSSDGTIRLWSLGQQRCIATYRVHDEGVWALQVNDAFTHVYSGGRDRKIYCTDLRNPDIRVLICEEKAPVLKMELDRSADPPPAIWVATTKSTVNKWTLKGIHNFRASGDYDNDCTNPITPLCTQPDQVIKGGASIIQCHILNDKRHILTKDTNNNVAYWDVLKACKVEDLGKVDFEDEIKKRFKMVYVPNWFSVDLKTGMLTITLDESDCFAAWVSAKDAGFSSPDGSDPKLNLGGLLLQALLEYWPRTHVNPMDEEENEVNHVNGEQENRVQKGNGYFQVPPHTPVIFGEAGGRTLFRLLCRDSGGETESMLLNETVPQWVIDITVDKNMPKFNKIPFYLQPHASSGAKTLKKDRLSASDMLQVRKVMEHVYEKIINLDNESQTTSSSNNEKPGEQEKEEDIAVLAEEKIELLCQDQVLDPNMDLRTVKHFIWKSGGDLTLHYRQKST

In the case of “9-(4-(1H-pyrazol-1-yl)benzyl)-2-(2-cyclopropylphenyl)-7,9- [Compound I-94]”, the pIC50 (usually the IC50 on a negative log10 scale, so that one unit is a factor of ten) is greater than 7.30.

For the origin of these results see patent publication US11161848B2, “Purinones as ubiquitin-specific protease 1 inhibitors” (FORMA Therapeutics, Inc., priority 2015, dated 2021).
